Data published in patent publication US20150051257A1, “SULPHONAMIDE DERIVATIVES OF BENZYLAMINE FOR THE TREATMENT OF CNS DISEASES” (ADAMED SP. Z O.O, priority 2012, published 2015).

What was measured:
σ (non-selective) = assay: Radioligand binding assay, σ receptors; details: test compound 1×10^−6M; [3H]DTG; rat cerebral cortex
Experimental: (§1) Specific ligand binding to the receptors is defined as the difference between the total binding and the non-specific binding determined in the presence of an excess of unlabelled ligand.
(§2) The results are expressed as a percent of control specific binding ((measured specific binding/control specific binding)×100%) obtained in the presence of the test compounds. The compounds were tested for their affinity to receptors at a concentration of 1×10^−6M.
(§3) Conditions and methodology of in vitro tests are given by reference to the literature in Table 1, and the results of tests for representative compounds are given in Table 2 (dopaminergic receptors D2 and D3), in Table 3 (dopaminergic receptors D1 and D4.4), in Table 4 (serotoninergic receptors 5-HT1A, 5-HT2A, 5-HT6, 5-HT7), in table 5 (serotoninergic receptors 5-HT2C), in Table 6 (sigma o receptors), in Table 7 (adrenergic receptors α1, histaminergic receptors H1 and muscarinic receptors M3), in Table 8 (adrenergic receptors α2C) and in Table 9 (serotonin transporter receptors SERT).

α1 (non-selective) = assay: Radioligand binding assay, adrenergic α1 receptors; details: test compound 1×10^−6M; [3H]prazosin; rat cerebral cortex
Experimental: as §1, §2, §3

[1] = biological target: T1, hERG potassium channels (KCNH2 gene, expressed in CHO cells) (Homo sapiens, UniProt Q12809); assay: Ability to block hERG potassium channel (electrophysiology, IonWorks Quattro); format: cell-based; details: cloned hERG in CHO cells; test pulse +40 mV; concentration not given
T1 construct: expressed in transfected cells; host or cells: CHO cells
T1 sequence (Q12809 whole entry): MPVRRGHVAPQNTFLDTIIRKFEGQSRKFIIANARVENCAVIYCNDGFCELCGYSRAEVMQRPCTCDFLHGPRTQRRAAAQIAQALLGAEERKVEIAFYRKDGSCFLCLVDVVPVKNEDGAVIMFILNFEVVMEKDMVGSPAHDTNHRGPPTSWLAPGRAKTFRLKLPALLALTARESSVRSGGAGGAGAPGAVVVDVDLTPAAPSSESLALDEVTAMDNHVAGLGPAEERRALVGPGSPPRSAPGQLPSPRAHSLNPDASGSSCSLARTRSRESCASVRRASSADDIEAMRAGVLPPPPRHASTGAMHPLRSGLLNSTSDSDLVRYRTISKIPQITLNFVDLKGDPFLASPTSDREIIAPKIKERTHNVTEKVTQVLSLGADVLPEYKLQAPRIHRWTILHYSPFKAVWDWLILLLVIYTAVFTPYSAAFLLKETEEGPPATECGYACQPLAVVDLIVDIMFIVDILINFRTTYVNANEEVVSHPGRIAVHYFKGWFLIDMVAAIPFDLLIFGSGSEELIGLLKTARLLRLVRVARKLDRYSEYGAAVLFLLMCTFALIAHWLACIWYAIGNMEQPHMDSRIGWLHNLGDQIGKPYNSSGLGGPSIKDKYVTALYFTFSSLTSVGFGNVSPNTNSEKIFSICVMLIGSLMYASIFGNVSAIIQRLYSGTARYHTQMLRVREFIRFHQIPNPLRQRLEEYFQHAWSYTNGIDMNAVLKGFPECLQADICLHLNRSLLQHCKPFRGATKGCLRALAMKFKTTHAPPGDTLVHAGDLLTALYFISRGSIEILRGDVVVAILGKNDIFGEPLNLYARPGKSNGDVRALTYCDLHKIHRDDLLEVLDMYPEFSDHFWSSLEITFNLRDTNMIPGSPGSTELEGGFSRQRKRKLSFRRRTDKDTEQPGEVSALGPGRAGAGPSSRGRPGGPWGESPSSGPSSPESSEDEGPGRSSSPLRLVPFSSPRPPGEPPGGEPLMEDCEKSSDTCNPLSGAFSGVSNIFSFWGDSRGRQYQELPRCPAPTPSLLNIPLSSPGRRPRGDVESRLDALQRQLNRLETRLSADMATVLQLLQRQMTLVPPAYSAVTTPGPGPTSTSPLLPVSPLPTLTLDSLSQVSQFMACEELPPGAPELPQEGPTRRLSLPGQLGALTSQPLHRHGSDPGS
Experimental: Ability to Block hERG Potassium Channel Ability to block hERG potassium channels was determined using the electrophysiological method and cloned hERG potassium channels (KCNH2 gene, expressed in CHO cells) as biological material. The effects were evaluated using IonWorks™ Quattro system (MDS-AT).
hERG current was elicited using a pulse pattern with fixed amplitudes (conditioning pre-pulse: −80 mV for 25 ms; test pulse: +40 mV for 80 ms) from a holding potential of 0 mV. hERG current was measured as a difference between the peak current at 1 ms after the test step to +40 mV and the steady-state current at the end of the step to +40 mV.
Data acquisition and analyses were performed using the lonWorks Quattro™ system operation software (version 2.0.2; Molecular Devices Corporation, Union City, Calif.). Data were corrected for leak current.
The hERG block was calculated as: % Block=(1−I TA/IControl)×100%, where IControl and ITA were the currents elicited by the test pulse in control and in the presence of a test compound, respectively.

σ [%] (σ (non-selective)) | α1 [%] (α1 (non-selective)) | Structure (SMILES) | hERG [%] (% Block) [1]
73 | 53 | O=S(=O)(Nc1cccc(CNCCc2cccc(Cl)c2)c1)c1ccc2ccccc2c1 [Compound 6, N-[3-[[2-(3-chlorophenyl)ethylamino]methyl]phenyl]naphthalene-2-sulphonamide] | 
83 | 26 | O=S(=O)(Nc1cccc(CNCCc2ccccc2)c1)c1ccc2ccccc2c1 [Compound 1, N-[3-[(phenylethylamino)methyl]phenyl]naphthalene-2-sulphonamide] | 
 |  | O=S(=O)(Nc1cccc(CNCCOc2cccc3c2OCCO3)c1)c1cccc2ccccc12 [Compound 35, N-[3-[[2-(2,3-dihydro-1,4-benzodioxin-5-yloxy)ethylamino]methyl]phenyl]naphthalene-1-sulphonamide] | −1
71 | 31 | O=S(=O)(Nc1cccc(CNCCc2cccc(O)c2)c1)c1ccc2ccccc2c1 [Compound 17, N-[3-[[2-(3-hydroxyphenyl)ethylamino]methyl]phenyl]naphthalene-2-sulphonamide] | 
79 | 59 | Cc1cccc(S(=O)(=O)Nc2cccc(CNCCOc3cccc4[nH]ccc34)c2)c1 [Compound 49, N-[3-[[2-(1H-indol-4-yloxy)ethylamino]methyl]phenyl]-3-methyl-benzenesulphonamide] | 2
 | 56 | COc1ccccc1CCNCc1cccc(NS(=O)(=O)c2ccc3ccccc3c2)c1 [Compound 9, N-[3-[[2-(2-methoxyphenyl)ethylamino]methyl]phenyl]naphthalene-2-sulphonamide] | 
74 | 20 | COc1ccccc1OCCNCc1cccc(NS(=O)(=O)c2ccc3ccccc3c2)c1 [Compound 10, N-[3-[[2-(2-methoxyphenoxyl)ethylamino]methyl]phenyl]naphthalene-2-sulphonamide] | 
54 | 13 | COc1ccc(CCNCc2cccc(NS(=O)(=O)c3ccc4ccccc4c3)c2)cc1 [Compound 14, N-[3-[[2-(4-methoxyphenyl)ethylamino]methyl]phenyl]naphthalene-2-sulphonamide] | 
 |  | O=S(=O)(Nc1cccc(CNCCOc2cccc3c2OCCO3)c1)c1csc2ccccc12 [Compound 43, N-[3-[[2-(2,3-dihydro-1,4-benzodioxin-5-yloxy)ethylamino]methyl]phenyl]benzothiophene-3-sulphonamide] | 10
76 | 18 | COc1cccc(CCNCc2cccc(NS(=O)(=O)c3ccc4ccccc4c3)c2)c1 [Compound 11, N-[3-[[2-(3-methoxyphenyl)ethylamino]methyl]phenyl]naphthalene-2-sulphonamide] | −4
73 | 84 | CN(CCCc1noc2cc(F)ccc12)Cc1cccc(NS(=O)(=O)c2ccc(I)cc2)c1 [Compound 68, N-[3-[[3-(6-fluoro-1,2-benzoxazol-3-yl)propylmethylamino]methyl]phenyl]-4-iodobenzenesulphonamide] | 
85 | 17 | Cc1cccc(CCNCc2cccc(NS(=O)(=O)c3ccc4ccccc4c3)c2)c1 [Compound 8, N-[3-[[2-(3-methylphenyl)ethylamino]methyl]phenyl]naphthalene-2-sulphonamide] | 
76 | 34 | O=S(=O)(Nc1cccc(CNCCOc2cccc3[nH]ccc23)c1)c1cccc2ccccc12 [Compound 51, N-[3-[[2-(1H-indol-4-yloxy)ethylamino]methyl]phenyl]naphthalene-1-sulphonamide] | 1
79 | 41 | O=S(=O)(Nc1cccc(CNCCOc2cccc3[nH]ccc23)c1)c1ccc2ccccc2c1 [Compound 52, N-[3-[[2-(1H-indol-4-yloxy)ethylamino]methyl]phenyl]naphthalene-2-sulphonamide] | 2
 |  | O=S(=O)(Nc1cccc(CNCCOc2cccc3c2OCCO3)c1)c1ccc2ccccc2c1 [Compound 36, N-[3-[[2-(2,3-dihydro-1,4-benzodioxin-5-yloxy)ethylamino]methyl]phenyl]naphthalene-2-sulphonamide] | 1
95 | 84 | O=S(=O)(Nc1cccc(CNCCOc2cccc3c2OCCO3)c1)c1ccc(I)cc1 [Compound 22, N-[3-[[2-(2,3-dihydro-1,4-benzodioxin-5-yloxy)ethylamino]methyl]phenyl]-4-iodobenzenesulphonamide] | 
